Data set [1] can be described thus: Stability of the amorphous state on storage judged by XRPD. The data set is classed as physicochemical. As to conditions: after 8 weeks of storage. The method, then: The invention therefore relates to a stable amorphous form of telithromycin (3-De[(2,6-dideoxy-3-C-methyl-3-O-methyl-α-L-ribohexopyranosyl)oxy]-11,12-dideoxy-6-O-methyl-3-oxo-12,11-[oxycarbonyl[[4-[4-(3-pyridinyl)-1H-imidazol-1-yl]butyl]imino]]erythromycin). […] The stable amorphous form of telithromycin as obtained according to example 2 was analyzed by X-ray powder diffraction diagrams, measured using an AXS-Bruker D-8 diffractometer (Cu-radiation, Bragg Brentano Optics, 40 kV, 40 mA, steps 0.01°, time 2 seconds, cut-off 40°, standard sample carrier).

The nature of data set [2]: Stress storage in closed vial, impurity increase by HPLC. The note with it: closed vial at 80° C. for 24 hours; spray-dried sample of Example 1. The format is physicochemical. As to the method:
The sample was stressed in a closed vial at 80° C. for 24 hours. An increase in impurities of 0.2 area % was observed when measured by HPLC under the following conditions: column: symmetry C18 3.5 μm; eluent: buffer pH 4.4 (4.76 g KH2PO4 in 2000 ml H2O adjusted to pH 4.4 using H3PO4), acetonitrile (2000 ml buffer+666 ml acetonitrile); measurement at a wavelength of 205 nm; inj. Vol […]; temperature 40° C.

Structures are written as SMILES.

Consider `CCC1OC(=O)[C@H](C)C(=O)[C@H](C)[C@@H](OC2OC(C)CC(N(C)C)C2O)[C@](C)(OC)C[C@@H](C)C(=O)[C@H](C)[C@H]2N(CCCCn3cnc(-c4cccnc4)c3)C(=O)O[C@]12C` (stereo partly drawn) [amorphous telithromycin, 3-De[(2,6-dideoxy-3-C-methyl-3-O-methyl-α-L-ribohexopyranosyl)oxy]-11,12-dideoxy-6-O-methyl-3-oxo-12,11-[oxycarbonyl[[4-[4-(3-pyridinyl)-1H-imidazol-1-yl]butyl]imino]]erythromycin], for which the “presence of crystalline telithromycin as judged by X-ray powder diffractogram” value in data set [1] is “no signs of the presence of crystalline telithromycin”. In addition, the “increase in impurities measured by HPLC” value in data set [2] stood at 0.2 area %.

(Values after US8222380B2, “Amorphous telithromycin compound” (Sandoz AG, priority 2006, dated 2012).)
